Measured values published in patent US10576064B2, “Spiro[3H-indole-3,2′-pyrrolidin]-2(1H)-one compounds and derivatives as MDM2-P53 inhibitors” (Boehringer Ingelheim International GmbH, priority 2014, dated 2020).

Biological target: p53-MDM2 interaction (GST-MDM2 protein aa 23-117 / biotinylated p53 wt peptide) (Homo sapiens (Human), UniProt Q00987)
Assay: MDM2-p53 Inhibition AlphaScreen
Type: biochemical
Conditions: 20 nM GST-MDM2 (aa 23-117), 20 nM biotinylated p53 wt peptide
Description: MDM2-p53 Inhibition AlphaScreen

| SMILES | IC50 [nM] |
| --- | --- |
| O=C(O)c1ccc(CN2C[C@H]3[C@@H](C2=O)[C@H](c2cccc(Cl)c2F)[C@]2(C(=O)Nc4cc(Cl)ccc42)N3CC2CC2)cc1 [Compound I-242] | 37 |
| O=C(O)c1ccc(N2C[C@H]3[C@@H](C2=O)[C@H](c2ccnc(Cl)c2F)[C@]2(C(=O)Nc4cc(Cl)ccc42)N3CC2CC2)cc1 [Compound I-244] | 4 |
| CCOc1cccc(CN2[C@H]3CN(Cc4ccc(C(=O)O)cc4)C(=O)[C@H]3[C@H](c3cccc(Cl)c3F)[C@]23C(=O)Nc2cc(Cl)ccc23)c1 [Compound I-246] | 17 |
| CCOc1cccc(CN2[C@H]3CN(Cc4ccc(C(=O)O)cc4)C(=O)[C@H]3[C@H](c3cccc(Cl)c3F)[C@@]23C(=O)Nc2cc(Cl)ccc23)c1 [Compound I-248] | 485 |
| COc1cc(N2C[C@H]3[C@@H](C2=O)[C@H](c2cccc(Br)c2F)[C@]2(C(=O)Nc4cc(Cl)ccc42)N3CC2CC2)ccc1C(=O)O [Compound I-250] | 9 |
| O=C(O)c1ccc(N2C[C@H]3[C@@H](C2=O)[C@H](c2cccc(Br)c2F)[C@]2(C(=O)Nc4cc(Cl)ccc42)N3CC2CC2)cc1 [Compound I-252] | 9 |
| O=C(O)c1ccc(N2C[C@H]3[C@@H](C2=O)[C@H](c2cccc(Br)c2F)[C@]2(C(=O)Nc4cc(Cl)ccc42)N3CC2CC2)cc1F [Compound I-254] | 9 |
| O=C(O)c1ccc(N2C[C@H]3[C@@H](C2=O)[C@H](c2cccc(Cl)c2F)[C@]2(C(=O)Nc4cc(Cl)ccc42)N3CC2CC2)cc1C(F)(F)F [Compound I-256] | 27 |
| COc1cc(N2C[C@H]3[C@@H](C2=O)[C@H](c2cccc(Cl)c2F)[C@]2(C(=O)Nc4cc(Cl)ccc42)N3CC2CC2)ccc1C(=O)O [Compound I-258] | 4 |
| O=C(O)c1ccc(N2C[C@H]3[C@@H](C2=O)[C@H](c2cccc(Cl)c2F)[C@]2(C(=O)Nc4cc(Cl)ccc42)N3CC2CC2)cc1OC(F)(F)F [Compound I-259] | 11 |
| Cc1cc(N2C[C@H]3[C@@H](C2=O)[C@H](c2cccc(Cl)c2F)[C@]2(C(=O)Nc4cc(Cl)ccc42)N3CC2CC2)ccc1C(=O)O [Compound I-261] | 5 |
| O=C(CO)c1ccc(N2C[C@H]3[C@@H](C2=O)[C@H](c2cccc(Cl)c2F)[C@]2(C(=O)Nc4cc(Cl)ccc42)N3CC2CC2)cc1 [Compound I-262] | 21 |
| O=C(O)c1ccc(N2CC[C@H]3[C@@H](C2=O)[C@H](c2cccc(Cl)c2F)[C@]2(C(=O)Nc4cc(Cl)ccc42)N3CC2CC2)c(O)c1 [Compound I-264] | 49 |
| NC(=O)c1ccc(N2CC[C@H]3[C@@H](C2=O)[C@H](c2cccc(Cl)c2F)[C@]2(C(=O)Nc4cc(Cl)ccc42)N3CC2CC2)cc1 [Compound I-268] | 26 |
| CNC(=O)c1ccc(N2CC[C@H]3[C@@H](C2=O)[C@H](c2cccc(Cl)c2F)[C@]2(C(=O)Nc4cc(Cl)ccc42)N3CC2CC2)cc1 [Compound I-270] | 27 |
| CN(C)C(=O)c1ccc(N2CC[C@H]3[C@@H](C2=O)[C@H](c2cccc(Cl)c2F)[C@]2(C(=O)Nc4cc(Cl)ccc42)N3CC2CC2)cc1 [Compound I-272] | 25 |
| O=C(NO)c1ccc(N2CC[C@H]3[C@@H](C2=O)[C@H](c2cccc(Cl)c2F)[C@]2(C(=O)Nc4cc(Cl)ccc42)N3CC2CC2)cc1 [Compound I-274] | 20 |
| CN(O)C(=O)c1ccc(N2CC[C@H]3[C@@H](C2=O)[C@H](c2cccc(Cl)c2F)[C@]2(C(=O)Nc4cc(Cl)ccc42)N3CC2CC2)cc1 [Compound I-276] | 46 |

| SMILES | IC50 [nM] |
| --- | --- |
| CON(C)C(=O)c1ccc(N2CC[C@H]3[C@@H](C2=O)[C@H](c2cccc(Cl)c2F)[C@]2(C(=O)Nc4cc(Cl)ccc42)N3CC2CC2)cc1 [Compound I-278] | 33 |
| NC(=O)c1ccc(N2C[C@H]3[C@@H](C2=O)[C@H](c2cccc(Cl)c2F)[C@]2(C(=O)Nc4cc(Cl)ccc42)N3CC2CC2)cc1 [Compound I-280] | 7 |
| NC(=O)c1ccc(N2C[C@H]3[C@@H](C2=O)[C@H](c2cccc(Cl)c2F)[C@]2(C(=O)Nc4cc(Cl)ccc42)N3CC2CC2)cc1C(F)(F)F [Compound I-281] | 67 |
| CCOc1cccc(CN2[C@H]3CN(c4ccc(C(=O)NO)cc4)C(=O)[C@H]3[C@H](c3cccc(Cl)c3F)[C@]23C(=O)Nc2cc(Cl)ccc23)c1 [Compound I-283] | 4 |
| CCOc1cccc(CN2[C@H]3CN(c4ccc(C(N)=O)cc4)C(=O)[C@H]3[C@H](c3cccc(Cl)c3F)[C@]23C(=O)Nc2cc(Cl)ccc23)c1 [Compound I-284] | 3 |
| O=C(NO)c1ccc(N2C[C@H]3[C@@H](C2=O)[C@H](c2cccc(Cl)c2F)[C@]2(C(=O)Nc4cc(Cl)ccc42)N3CC2CC2)cc1 [Compound I-285] | 8 |
| CN(C)C(=O)c1ccc(N2C[C@H]3[C@@H](C2=O)[C@H](c2cccc(Cl)c2F)[C@]2(C(=O)Nc4cc(Cl)ccc42)N3CC2CC2)cc1 [Compound I-286] | 10 |
| CNC(=O)c1ccc(N2C[C@H]3[C@@H](C2=O)[C@H](c2cccc(Cl)c2F)[C@]2(C(=O)Nc4cc(Cl)ccc42)N3CC2CC2)cc1 [Compound I-287] | 8 |
| NC(=O)c1ccc(N2C[C@H]3[C@@H](C2=O)[C@H](c2ccnc(Cl)c2F)[C@]2(C(=O)Nc4cc(Cl)ccc42)N3CC2CC2)cc1 [Compound I-288] | 8 |
| O=C(O)c1ccc(-c2cc(Cl)c(F)c([C@H]3[C@@H]4C(=O)NCC[C@@H]4N(CC4CC4)[C@@]34C(=O)Nc3cc(Cl)ccc34)c2)cc1 [Compound I-290] | 36 |
| Nc1ccc(N2CC[C@H]3[C@@H](C2=O)[C@H](c2cccc(Cl)c2F)[C@]2(C(=O)Nc4cc(Cl)ccc42)N3CC2CC2)cc1 [Compound I-292] | 164 |
| CC(=O)Nc1ccc(N2CC[C@H]3[C@@H](C2=O)[C@H](c2cccc(Cl)c2F)[C@]2(C(=O)Nc4cc(Cl)ccc42)N3CC2CC2)cc1 [Compound I-296] | 58 |
| O=CNc1ccc(N2CC[C@H]3[C@@H](C2=O)[C@H](c2cccc(Cl)c2F)[C@]2(C(=O)Nc4cc(Cl)ccc42)N3CC2CC2)cc1 [Compound I-298] | 86 |
| CS(=O)(=O)Nc1ccc(N2CC[C@H]3[C@@H](C2=O)[C@H](c2cccc(Cl)c2F)[C@]2(C(=O)Nc4cc(Cl)ccc42)N3CC2CC2)cc1 [Compound I-300] | 98 |
| CS(=O)(=O)Nc1ccc(N2C[C@H]3[C@@H](C2=O)[C@H](c2cccc(Cl)c2F)[C@]2(C(=O)Nc4cc(Cl)ccc42)N3CC2CC2)cc1F [Compound I-302] | 37 |
| CCOC(=O)CNc1ccc(N2CC[C@H]3[C@@H](C2=O)[C@H](c2cccc(Cl)c2F)[C@]2(C(=O)Nc4cc(Cl)ccc42)N3CC2CC2)cc1 [Compound I-304] | 192 |
| O=C(O)CNc1ccc(N2CC[C@H]3[C@@H](C2=O)[C@H](c2cccc(Cl)c2F)[C@]2(C(=O)Nc4cc(Cl)ccc42)N3CC2CC2)cc1 [Compound I-306] | 67 |

System: human acute myeloid leukemia (AML) and human prostate tumor xenograft models harboring p53 wild-type
Assay: not given
Conditions: Tovar et al. 2013; cited from earlier work

| SMILES | antiproliferative and proapoptotic activity |
| --- | --- |
| CCOc1cc(C(C)(C)C)ccc1C1=N[C@@](C)(c2ccc(Cl)cc2)[C@@](C)(c2ccc(Cl)cc2)N1C(=O)N1CCN(CCCS(C)(=O)=O)CC1 [RG7112] | antiproliferative and proapoptotic activity of RG7112 has been observed |

System: acute lymphoblastic leukemia (ALL) xenograft models with mixed-lineage leukemia (MLL) rearrangement
Assay: not given
Conditions: Carol et al. 2013; cited from earlier work

| SMILES | efficacy in xenograft models |
| --- | --- |
| CCOc1cc(C(C)(C)C)ccc1C1=N[C@@](C)(c2ccc(Cl)cc2)[C@@](C)(c2ccc(Cl)cc2)N1C(=O)N1CCN(CCCS(C)(=O)=O)CC1 [RG-7112] | particularly efficacious |

System: solid tumor xenograft models
Assay: not given
Conditions: Carol et al. 2013; cited from earlier work

| SMILES | tumor growth inhibition |
| --- | --- |
| CCOc1cc(C(C)(C)C)ccc1C1=N[C@@](C)(c2ccc(Cl)cc2)[C@@](C)(c2ccc(Cl)cc2)N1C(=O)N1CCN(CCCS(C)(=O)=O)CC1 [RG-7112] | induced tumor growth inhibition |

System: p53 wild-type vs. p53 mutant cell lines
Assay: not given
Conditions: Carol et al. 2013; cited from earlier work

| SMILES | cytotoxic activity, median IC50 |
| --- | --- |
| CCOc1cc(C(C)(C)C)ccc1C1=N[C@@](C)(c2ccc(Cl)cc2)[C@@](C)(c2ccc(Cl)cc2)N1C(=O)N1CCN(CCCS(C)(=O)=O)CC1 [RG-7112] | lower median IC50 values for p53 wild-type vs. p53 mutant cell lines |
